{"source": "paper PMC8286840", "about": "“Identifying SARS-CoV-2 antiviral compounds by screening for small molecule inhibitors of Nsp3 papain-like protease” (Biochemical Journal, 2021)", "key": {"[1]": {"target": "T1, SARS-CoV-2 PLpro (nsp3 1564–1878) (Severe acute respiratory syndrome coronavirus 2, UniProt P0DTD1)", "test": "biochemical", "parameters": "FRET-quenched peptide (Pro3) cleavage by PLpro, 10 min pre-incubation, slope over 20 min, normalised to no-compound control", "conditions": "read-out: % of control remaining"}, "[2]": {"target": "T1, SARS-CoV-2 PLpro (nsp3 1564–1878)", "test": "biochemical", "parameters": "FRET-quenched peptide (Pro3) cleavage by PLpro, 10 min pre-incubation, slope over 20 min, normalised to no-compound control", "conditions": "read-out: % of control remaining", "remark": "listed apart in the source"}}, "note": "Where two headings read alike, the source gives them in different places.", "data": [{"smiles": "Cc1cnc(-c2cc(N3CCN(C(=O)CCS(C)(=O)=O)CC3)ncc2Cl)c(C)c1", "note": "[PF-5274857]", "values": [{"measurement": "remaining activity at 1.25 µM", "setting": "[1]; Well no.=4739, low concentration screen", "result": 99.5, "unit": "%"}, {"measurement": "remaining activity at 3.75 µM", "setting": "[2]; Well no.=4739, high concentration screen", "result": 102, "unit": "%"}]}, {"smiles": "O=C1CC(c2c[nH]c3ccc(F)cc23)C(=O)N1", "note": "(stereo not drawn) [PF-06840003]", "values": [{"measurement": "remaining activity at 1.25 µM", "setting": "[1]; Well no.=8215, low concentration screen", "result": 104, "unit": "%"}, {"measurement": "remaining activity at 3.75 µM", "setting": "[2]; Well no.=8215, high concentration screen", "result": 101, "unit": "%"}]}, {"smiles": "COc1ccccc1S(=O)(=O)Nc1ccc2c(c1)CN(C)C(=O)N2", "note": "[PFI-1]", "values": [{"measurement": "remaining activity at 1.25 µM", "setting": "[1]; Well no.=4844, low concentration screen", "result": 97, "unit": "%"}, {"measurement": "remaining activity at 3.75 µM", "setting": "[2]; Well no.=4844, high concentration screen", "result": 88.7, "unit": "%"}]}, {"smiles": "CNC(=O)c1ccc(C)c(-n2c(C)cc(OCc3ccc(F)cc3F)c(Br)c2=O)c1", "note": "[PH-797804]", "values": [{"measurement": "remaining activity at 1.25 µM", "setting": "[1]; Well no.=4695, low concentration screen", "result": 104, "unit": "%"}, {"measurement": "remaining activity at 3.75 µM", "setting": "[2]; Well no.=4695, high concentration screen", "result": 104, "unit": "%"}]}, {"smiles": "Cc1[nH]c(/C=C2\\C(=O)Nc3ccc(S(=O)(=O)Cc4c(Cl)cccc4Cl)cc32)c(C)c1C(=O)N1CCC[C@@H]1CN1CCCC1", "note": "[PHA 665752 - (2R)-1-[[5-[(Z)-[5-[[(2,6-Dichlorophenyl)methyl]sulfonyl]-1,2-dihydro-2-oxo-3H-indol-3-ylidene]methyl]-2,4-dimethyl-1H-pyrrol-3-yl]carbonyl]-2-(1-pyrrolidinylmethyl)pyrrolidine]", "values": [{"measurement": "remaining activity at 1.25 µM", "setting": "[1]; Well no.=2590, low concentration screen", "result": 96.2, "unit": "%"}, {"measurement": "remaining activity at 3.75 µM", "setting": "[2]; Well no.=2590, high concentration screen", "result": 98.3, "unit": "%"}]}, {"smiles": "CCc1cccc(CC)c1NC(=O)N1Cc2[nH]nc(NC(=O)c3ccc(N4CCN(C)CC4)cc3)c2C1", "note": "[PHA-680632]", "values": [{"measurement": "remaining activity at 1.25 µM", "setting": "[1]; Well no.=4865, low concentration screen", "result": 97.9, "unit": "%"}, {"measurement": "remaining activity at 3.75 µM", "setting": "[2]; Well no.=4865, high concentration screen", "result": 101, "unit": "%"}]}, {"smiles": "CC(C)CC(=O)Nc1n[nH]c2c1CN(C(=O)C1CCN(C)CC1)C2(C)C", "note": "[PHA-793887]", "values": [{"measurement": "remaining activity at 1.25 µM", "setting": "[1]; Well no.=4907, low concentration screen", "result": 94.3, "unit": "%"}, {"measurement": "remaining activity at 3.75 µM", "setting": "[2]; Well no.=4907, high concentration screen", "result": 93.7, "unit": "%"}]}, {"smiles": "O=C(Nc1ccccc1)[C@@]12C[C@@H]1/C(=N\\O)c1ccccc1O2", "note": "[PHCCC]", "values": [{"measurement": "remaining activity at 1.25 µM", "setting": "[1]; Well no.=8571, low concentration screen", "result": 107, "unit": "%"}, {"measurement": "remaining activity at 3.75 µM", "setting": "[2]; Well no.=8571, high concentration screen", "result": 105, "unit": "%"}]}, {"smiles": "CCCCCCCCCCCCc1ccc(S(=O)(=O)Nc2nncs2)cc1", "note": "[PHT-427]", "values": [{"measurement": "remaining activity at 1.25 µM", "setting": "[1]; Well no.=4959, low concentration screen", "result": 96.5, "unit": "%"}, {"measurement": "remaining activity at 3.75 µM", "setting": "[2]; Well no.=4959, high concentration screen", "result": 98.1, "unit": "%"}]}, {"smiles": "Oc1ccc(-c2c(-c3ccccc3)nn3c(C(F)(F)F)cc(C(F)(F)F)nc23)cc1", "note": "[PHTPP]", "values": [{"measurement": "remaining activity at 1.25 µM", "setting": "[1]", "result": 103, "unit": "%"}, {"measurement": "remaining activity at 3.75 µM", "setting": "[2]", "result": 101, "unit": "%"}]}, {"smiles": "COc1cc(Nc2nc3ccccc3nc2NS(=O)(=O)c2ccc(NC(=O)c3ccc(C)c(OC)c3)cc2)cc(OC)c1", "note": "[PI3K-IN-1]", "values": [{"measurement": "remaining activity at 1.25 µM", "setting": "[1]; Well no.=8600, low concentration screen", "result": 102, "unit": "%"}, {"measurement": "remaining activity at 3.75 µM", "setting": "[2]; Well no.=8600, high concentration screen", "result": 97.8, "unit": "%"}]}, {"smiles": "O=C1NC(=O)/C(=C/c2ccc3nccnc3c2)S1", "note": "[PI 3-Kg Inhibitor]", "values": [{"measurement": "remaining activity at 1.25 µM", "setting": "[1]; Well no.=2515, low concentration screen", "result": 99.9, "unit": "%"}, {"measurement": "remaining activity at 3.75 µM", "setting": "[2]; Well no.=2515, high concentration screen", "result": 106, "unit": "%"}]}, {"smiles": "Nc1ccc(-c2cccc3c(=O)cc(N4CCOCC4)oc23)cc1", "note": "[PI 828 - 2-(4-Morpholinyl)-8-(4-aminopheny)l-4H-1-benzopyran-4-one]", "values": [{"measurement": "remaining activity at 1.25 µM", "setting": "[1]; Well no.=2628, low concentration screen", "result": 98.1, "unit": "%"}, {"measurement": "remaining activity at 3.75 µM", "setting": "[2]; Well no.=2628, high concentration screen", "result": 102, "unit": "%"}]}, {"smiles": "Oc1cccc(-c2nc(N3CCOCC3)c3oc4ncccc4c3n2)c1", "note": "[PI-103]", "values": [{"measurement": "remaining activity at 1.25 µM", "setting": "[1]; Well no.=2367, low concentration screen", "result": 100, "unit": "%"}, {"measurement": "remaining activity at 3.75 µM", "setting": "[2]; Well no.=2367, high concentration screen", "result": 100, "unit": "%"}]}, {"smiles": "CCCc1ccc(OCC(=O)N(Cc2nc(-c3cccnc3)no2)C(C)C)cc1", "note": "[PI-1840]", "values": [{"measurement": "remaining activity at 1.25 µM", "setting": "[1]; Well no.=8718, low concentration screen", "result": 94.8, "unit": "%"}, {"measurement": "remaining activity at 3.75 µM", "setting": "[2]; Well no.=8718, high concentration screen", "result": 98.4, "unit": "%"}]}, {"smiles": "Cc1ccc([N+](=O)[O-])cc1S(=O)(=O)N(C)/N=C/c1cnc2ccc(Br)cn12", "note": "[PIK 75]", "values": [{"measurement": "remaining activity at 1.25 µM", "setting": "[1]; Well no.=2993, low concentration screen", "result": 96.4, "unit": "%"}, {"measurement": "remaining activity at 3.75 µM", "setting": "[2]; Well no.=2993, high concentration screen", "result": 96.1, "unit": "%"}]}, {"smiles": "COc1ccc2c3n(c(=NC(=O)c4cccnc4)nc2c1OC)CCN3", "note": "[PIK-90]", "values": [{"measurement": "remaining activity at 1.25 µM", "setting": "[1]; Well no.=2747, low concentration screen", "result": 91.2, "unit": "%"}, {"measurement": "remaining activity at 3.75 µM", "setting": "[2]; Well no.=2747, high concentration screen", "result": 95, "unit": "%"}]}, {"smiles": "CC(=O)Nc1nc(C)c(-c2ccc(Cl)c(S(=O)(=O)NCCO)c2)s1", "note": "[PIK-93]", "values": [{"measurement": "remaining activity at 1.25 µM", "setting": "[1]; Well no.=4911, low concentration screen", "result": 95.7, "unit": "%"}, {"measurement": "remaining activity at 3.75 µM", "setting": "[2]; Well no.=4911, high concentration screen", "result": 96.9, "unit": "%"}]}]}
